In patent US8637525B2, “Compounds for the reduction of beta-amyloid production” (Bristol-Myers Squibb Company, priority 2009, dated 2014):
Counter-ions that a name gives are not always drawn. Like-named read-outs stand apart in the source and are kept apart here.

System: Aβ1-42 production
Experiment: Cellular assay for inhibition of Aβ1-42 production (H4 APP751 SWE clone 8.20)
Format: cell-based
Settings: H4 APP751 SWE clone 8.20 cells, 19 h incubation
Experimental: Cellular Assays for Inhibition of Aβ1-40 and Aβ1-42 Production
H4 cells stably transfected with APP751 containing the Swedish mutation (H4 APP751 SWE clone 8.20, developed at BMS) were maintained in log phase through twice weekly passage at a 1:20 split. […] Following incubation for 19 h in 5% CO2 at 37° C., plates were briefly centrifuged (1000 rpm, 5 min). A 10 μl aliquot from each well was transferred to a second assay plate (Costar 3709) for Aβ40 measurements. Antibody cocktails were freshly prepared by dilution into 40 mM Tris-HCl (pH 7.4) with 0.2% BSA and added to assay plates. For Aβ42 measurements, antibodies specific for the Aβ42 neoepitope (565, developed at BMS; conjugated to the Wallac reagent (Perkin Elmer)) and the N-terminal sequence of Aβ peptide (26D6, developed at SIBIA; conjugated to APC (Perkin Elmer)) were mixed and 20 μl of the mixture was added to each well of the incubated cell plate yielding a final concentration of 0.8 ng/well 565 and 75 ng/well 26D6. For the Aβ40 measurements, antibodies specific for the Aβ40 neoepitope (TSD, developed at BMS; conjugated to the Wallac reagent (Perkin Elmer)) and 26D6 as described above were mixed and 20 μl of the mixture was added to the 10 μl aliquots which had been removed previously from the cell plate yielding a final concentration of 1.6 ng/well TSD and 17.5 ng/well 26D6. Assay plates containing antibodies were sealed with aluminum foil and incubated overnight at 4° C. Signal was determined using a Viewlux counter (Perkin Elmer) and IC50 values determined using curve fitting in CurveMaster (Excel Fit based).

[1] = 19 h, class symbols, read-out: Activity Rating (Aβ42 cellular IC50)
[2] = 19 h, read-out: Activity Rating (Aβ42 cellular IC50), numeric value
[3] = class symbols, read-out: Activity Rating (Aβ42 cellular IC50)

Row | Compound | IC50 [1] [µM] | other results
1 | COCC(Nc1nc(Nc2ccc(-n3cnc(Cl)c3)c(OC)c2)nc2c1CCC2c1ccc(F)cc1)C1CC1 (stereo not shown) [Example 45B, N2-(4-(4-chloro-1H-imidazol-1-yl)-3-methoxyphenyl)-N4-(1-cyclopropyl-2-methoxyethyl)-7-(4-fluorophenyl)-6,7-dihydro-5H-cyclopenta[d]pyrimidine-2,4-diamine] |  | IC50 [2]: 0.0025 µM
2 | CNc1nc(Nc2ccc(-n3cnc(Cl)c3)c(OC)c2)nc2c1CCC2c1ccc(Cl)cc1 (racemic) [Example 94, N^2-(4-(4-Chloro-1H-imidazol-1-yl)-3-methoxyphenyl)-7-(4-chlorophenyl)-N^4-methyl-6,7-dihydro-5H-cyclopenta[d]pyrimidine-2,4-diamine] | 0.0015 to 0.0099 | 
3 | COc1cc(Nc2nc3c(c(N4CC[C@@H](F)C4)n2)COCC3c2ccc(OC(F)(F)F)cc2)ccc1-n1cnc(Cl)c1 (stereo partly shown) [Example 123A] | 0.01 to 0.1 | 
4 | COCC(Nc1nc(Nc2ccc(-n3cnc(Cl)c3)c(OC)c2)nc2c1CCC2c1ccc(F)cc1)C1CC1 (single isomer, unassigned) [Example 45C, N2-(4-(4-chloro-1H-imidazol-1-yl)-3-methoxyphenyl)-N4-(1-cyclopropyl-2-methoxyethyl)-7-(4-fluorophenyl)-6,7-dihydro-5H-cyclopenta[d]pyrimidine-2,4-diamine] |  | IC50 [3]: 0.01 to 0.1 µM
5 | CCNc1nc(Nc2ccc(-n3ncnc3C)c(F)c2)nc2c1COCC2c1ccc(F)cc1 (racemic) [Example 59, N4-ethyl-N2-(3-fluoro-4-(5-methyl-1H-1,2,4-triazol-1-yl)phenyl)-8-(4-fluorophenyl)-7,8-dihydro-5H-pyrano[4,3-d]pyrimidine-2,4-diamine] | 0.01 to 0.1 | 
6 | CNc1nc(Nc2ccc(-n3cnc(Cl)c3)c(OC)c2)nc2c1CCC2c1ccc(F)cc1 (single isomer, unassigned) [Example 11A, N^2-(4-(4-Chloro-1H-imidazol-1-yl)-3-methoxyphenyl)-7-(4-fluorophenyl)-N^4-methyl-6,7-dihydro-5H-cyclopenta[d]pyrimidine-2,4-diamine] |  | IC50 (19 h, read-out: Activity Rating (Aβ42 cellular IC50), numeric value printed without unit): 0.0038 µM
7 | CNc1nc(Nc2ccc(-n3cnc(Cl)c3)c(OC)c2)nc2c1CN(S(C)(=O)=O)CC2c1ccc(F)cc1 (stereo not shown) [Example 154A, N2-(4-(4-chloro-1H-imidazol-1-yl)-3-methoxyphenyl)-8-(4-fluorophenyl)-N4-methyl-6-(methylsulfonyl)-5,6,7,8-tetrahydropyrido[4,3-d]pyrimidine-2,4-diamine] |  | IC50 [3]: 0.0015 to 0.0099 µM
8 | COc1cc(Nc2nc3c(c(N4CC(F)(F)C4)n2)CCC3c2ccc(F)cc2)ccc1-n1cnc(Cl)n1 (single isomer, unassigned) [Example 17A, N-(4-(3-chloro-1H-1,2,4-triazol-1-yl)-3-methoxyphenyl)-4-(3,3-difluoroazetidin-1-yl)-7-(4-fluorophenyl)-6,7-dihydro-5H-cyclopenta[d]pyrimidin-2-amine] |  | IC50 [2]: 0.12 µM
9 | CNc1nc(Nc2ccc(-n3cnc(Cl)n3)c(OC)c2)nc2c1CCC2c1cc(F)c(F)c(F)c1 (stereo not shown) [Example 106, N^2-(4-(3-chloro-1H-1,2,4-triazol-1-yl)-3-methoxyphenyl)-N^4-methyl-7-(3,4,5-trifluorophenyl)-6,7-dihydro-5H-cyclopenta[d]pyrimidine-2,4-diamine] | 0.01 to 0.1 | 
10 | COCC(Nc1nc(Nc2ccc(-n3cnc(Cl)c3)c(OC)c2)nc2c1CCC2c1ccc(F)cc1)C1CC1 (single isomer, unassigned) [Example 45D, N2-(4-(4-chloro-1H-imidazol-1-yl)-3-methoxyphenyl)-N4-(1-cyclopropyl-2-methoxyethyl)-7-(4-fluorophenyl)-6,7-dihydro-5H-cyclopenta[d]pyrimidine-2,4-diamine] |  | IC50 [3]: 0.0015 to 0.0099 µM
11 | CNC1CN(c2nc(Nc3ccc(-n4cnc(Cl)c4)c(OC)c3)nc3c2CCC3c2ccc(F)cc2)C1 (stereo not shown) [Example 33, N-(4-(4-chloro-1H-imidazol-1-yl)-3-methoxyphenyl)-7-(4-fluorophenyl)-4-(3-(methylamino)azetidin-1-yl)-6,7-dihydro-5H-cyclopenta[d]pyrimidin-2-amine] |  | IC50 [2]: 0.1 µM
12 | COc1cc(Nc2nc3c(c(N(C)C)n2)COCC3c2ccc(F)cc2)ccc1-n1cnc(Cl)c1 (stereo not shown) [Example 61B, N2-(4-(4-chloro-1H-imidazol-1-yl)-3-methoxyphenyl)-8-(4-fluorophenyl)-N4,N4-dimethyl-7,8-dihydro-5H-pyrano[4,3-d]pyrimidine-2,4-diamine] |  | IC50 [3]: 0.01 to 0.1 µM
13 | COc1cc(Nc2nc3c(c(N(C)C)n2)COCC3c2ccc(F)cc2)ccc1-n1cnc(Cl)c1 (stereo not shown) [Example 61A, N2-(4-(4-chloro-1H-imidazol-1-yl)-3-methoxyphenyl)-8-(4-fluorophenyl)-N4,N4-dimethyl-7,8-dihydro-5H-pyrano[4,3-d]pyrimidine-2,4-diamine] |  | IC50 [3]: 0.0015 to 0.0099 µM
14 | CNc1nc(Nc2ccc(-n3cnc(C)n3)c(OC)c2)nc2c1CC[C@H]2c1ccccc1OC (single isomer, unassigned) [Example 266A] | 0.01 to 0.1 | 
15 | CCN(C)c1nc(Nc2ccc(-n3cnc(Cl)c3)c(OC)c2)nc2c1CCOC2c1ccc(F)cc1 (stereo not shown) [Example 89, N2-(4-(4-chloro-1H-imidazol-1-yl)-3-methoxyphenyl)-N4-ethyl-8-(4-fluorophenyl)-N4-methyl-6,8-dihydro-5H-pyrano[3,4-d]pyrimidine-2,4-diamine] | 0.01 to 0.1 | 
16 | COc1cc(Nc2nc3c(c(N4CC(F)(F)C4)n2)CCC3c2ccc(OC(F)(F)F)cc2)ccc1-n1cnc(Cl)c1 (racemic) [Example 99, N-(4-(4-Chloro-1H-imidazol-1-yl)-3-methoxyphenyl)-4-(3,3-difluoroazetidin-1-yl)-7-(4-(trifluoromethoxy)phenyl)-6,7-dihydro-5H-cyclopenta[d]pyrimidin-2-amine] |  | IC50 [2]: 0.019 µM
17 | CCNc1nc(Nc2ccc(-n3cnc(Cl)c3)c(OC)c2)nc2c1COCC2c1cc(F)cc(F)c1 (stereo not shown) [Example 112A, N2-(4-(4-chloro-1H-imidazol-1-yl)-3-methoxyphenyl)-8-(3,5-difluorophenyl)-N4-ethyl-7,8-dihydro-5H-pyrano[4,3-d]pyrimidine-2,4-diamine] |  | IC50 [3]: 0.0015 to 0.0099 µM
18 | COc1cc(Nc2nc3c(c(N(C)C)n2)COCC3c2ccccc2)ccc1-n1cnc(Cl)c1 (racemic) [Example 53, N^2-(4-(4-Chloro-1H-imidazol-1-yl)-3-methoxyphenyl)-N^4,N^4-dimethyl-8-phenyl-7,8-dihydro-5H-pyrano[4,3-d]pyrimidine-2,4-diamine] | 0.01 to 0.1 | 

Second part, led by results:

Row | IC50 [1] [µM] | Compound | other results
19 | 0.01 to 0.1 | CCNc1nc(Nc2ccc(-n3cnc(Cl)c3)c(OC)c2)nc2c1COCC2c1ccc(C#N)cc1 (racemic) [Example 121, 4-(2-(4-(4-chloro-1H-imidazol-1-yl)-3-methoxyphenylamino)-4-(ethylamino)-7,8-dihydro-5H-pyrano[4,3-d]pyrimidin-8-yl)benzonitrile, TFA] | 
20 | 0.0015 to 0.0099 | CCNc1nc(Nc2ccc(-n3cnc(Cl)c3)c(OC)c2)nc2c1CN(C(C)=O)CC2c1ccccc1 (stereo not shown) [Example 137A, 1-(2-(4-(4-chloro-1H-imidazol-1-yl)-3-methoxyphenylamino)-4-(ethylamino)-8-phenyl-7,8-dihydropyrido[4,3-d]pyrimidin-6(5H)-yl)ethanone] | 
21 | 0.0015 to 0.0099 | CNc1nc(Nc2ccc(-n3cnc(Cl)c3)c(OC)c2)nc2c1CCC2c1ccc(F)cc1F (single isomer, unassigned) [Example 109A, N^2-(4-(4-Chloro-1H-imidazol-1-yl)-3-methoxyphenyl)-7-(2,4-difluorophenyl)-N^4-methyl-6,7-dihydro-5H-cyclopenta[d]pyrimidine-2,4-diamine] | 
22 | > 1 | CNc1nc(Nc2ccc3nc(C)oc3c2)nc2c1CCC2c1ccccc1 (stereo not shown) [Example 252, N4-methyl-N2-(2-methylbenzo[d]oxazol-6-yl)-7-phenyl-6,7-dihydro-5H-cyclopenta[d]pyrimidine-2,4-diamine] | 
23 | 0.0015 to 0.0099 | CNc1nc(Nc2ccc(-n3cnc(C)n3)c(OC)c2)nc2c1CC[C@H]2c1ccc(Cl)cc1F (single isomer, unassigned) [Example 271A] | 
24 | 0.01 to 0.1 | CCOC1CN(c2nc(Nc3ccc(-n4cnc(Cl)c4)c(OC)c3)nc3c2CCC3c2ccc(F)cc2)C1 (stereo not shown) [Example 187, N-(4-(4-chloro-1H-imidazol-1-yl)-3-methoxyphenyl)-4-(3-ethoxyazetidin-1-yl)-7-(4-fluorophenyl)-6,7-dihydro-5H-cyclopenta[d]pyrimidin-2-amine] | 
25 | 0.01 to 0.1 | COc1cc(Nc2nc3c(c(N4C[C@@H](C)O[C@@H](C)C4)n2)COC3c2ccc(F)cc2)ccc1-n1cnc(Cl)c1 (stereo partly drawn) [Example 84A, N-(4-(4-chloro-1H-imidazol-1-yl)-3-methoxyphenyl)-4-((2S,6R)-2,6-dimethylmorpholino)-7-(4-fluorophenyl)-5,7-dihydrofuro[3,4-d]pyrimidin-2-amine] | 
